Publication PMC7096398, “Oxytocin Receptors Regulate Social Preference in Zebrafish” (Scientific Reports, 2020)
“Also recorded” adds a separate entry of the source.

Assays:
adult zebrafish = experiment: Shoaling test in adult zebrafish; type: in vivo, zebrafish (Danio rerio)
Procedure: Adult and larval behavioural testing was performed between 9 AM and 4 PM. All fish were fed prior to and after experiments, and larvae were also given an additional feed at midday. Adult fish were of a 1:1 sex ratio, and focal fish and stimulus fish were size-matched. Adult fish and shoals were filmed using a web camera and Debut Video Capture Software (NCH Software, Greenwood Village, USA), and videos were analysed using EthoVision version 11 (Noldus, Wageningen, the Netherlands).
The shoaling test was performed to examine the effects of L-368,899 on social group behaviour, a test widely used to assess shoaling sensitivity to various drugs and experimental settings[75],[76].
The experimental setup comprised a 1.8 L trapezoidal tank (height 16 cm × length at the top 26 cm × length at the bottom 23 cm × width 6 cm, Aquaneering, San Diego, USA). Fifty-six zebrafish were randomly grouped into shoals of four (two males and two females) three days prior to the experiment. […] On day four all shoal members were weighed and injected with either fish Ringer’s (n = 6 shoals) or L-368,899 (n = 7 shoals), using the same procedure described above. Shoals were returned to their respective holding tanks for one hour to recover, and then gently transferred to test tanks, in which they were filmed for 15 minutes.
All data for the social preference and novel tank diving experiments in adults were extracted as processed means per minute from EthoVision. For the shoaling experiments, raw data was exported from EthoVision, and then post-processed by an in-house script written in Python 3.4, in order to compute IFD, NND, and FND as described elsewhere. For timelines, repeated measures analysis of variance (RM-ANOVA) was used. For pairwise comparisons of total means between groups, Student’s T-tests were used.

OT receptor = details: cited from earlier work
Source text: Intriguingly, the non-peptidergic OT receptor antagonist L-368,8 ...

larval zebrafish = experiment: Social preference in larval zebrafish; type: in vivo, zebrafish (Danio rerio); details: 100 µM immersion 1 h
Procedure: The social preference test for young zebrafish has been described elsewhere. In brief, experiments were performed in custom-built arenas; see Fig. 5, consisting of laser-cut 5 mm high white acrylic walls placed on transparent flooring with transparent acrylic partitions. The dimensions of each arena were 40 × 32 mm, and the chambers containing stimulus fish was 15 × 15 mm. The areas in front of these stimulus compartments were designated Social Area (where the stimulus was placed) or Non-Social Area (where the stimulus was not placed). The water depth was 5 mm, and water parameters matched the ones housing water parameters. Nine arenas were placed adjacent to each other on an infrared (IR) back-light diffusing both IR and white light (Noldus, Wageningen, the Netherlands), with a digital monochrome high resolution GigE camera overhead (Noldus, Wageningen, the Netherlands), and surrounded by an opaque enclosure.
A 10 mM stock solution was prepared by dissolving L-368,899 in H2O (Milli-Q water purification system), and subsequently stored at −20 °C. The stock solution was diluted to a working concentration of 100 µM by addition of water adjusted to the same parameters kept in the fish facility. Larvae were immersed in 100 µM L-368,899 solution (treated fish) or in water matching housing conditions (control fish) for 1 hour prior to testing. Focal larvae were then transferred to test arenas and filmed for 15 minutes, with no stimulus present (acclimation period; AC). Following this, one stimulus larva was placed in a randomly selected stimulus chamber of each arena, and focal larvae were filmed for another 15 minutes (social cue period; SC). A total of 137 vehicle-treated fish and 109 antagonist-treated fish were tested, and after using the exclusion criteria described below, 87 vehicle-treated fish and 77 antagonist-treated fish were included in the statistical analyses.
Larval results were analysed using a social preference index (SPI). SPI was calculated by subtracting the time a focal larva spent in the Non-Social Area from the time it spent in the Social Area, and then dividing the result by the total time the larva was tracked in the entire arena. […] SPI was calculated for each focal larva for the AC period and the SC period separately. […] All data was analysed using paired T-tests to investigate change within the control and treated groups, and Student’s T-tests to investigate difference between the groups for each phase.

Cc1ccccc1N1CCN(S(=O)(=O)C[C@]23CC[C@H](C[C@@H]2NC(=O)[C@@H](N)CCS(C)(=O)=O)C3(C)C)CC1 [L-368,899]
Shoaling parameters vs vehicle, outlier vehicle shoal included (adult zebrafish; IFD, NND, FND, including outlier shoal): no significant differences
Social behaviour: Nearest neighbour distance (adult zebrafish; adult shoaling, shoals of four, 100 µg per gram fish i.p., 1 h before 15 min test, mean ± SEM, n = 7 shoals, vehicle 3.3 ± 0.2): 3.7 ± 0.1 cm
Social behaviour: Interfish distance (adult zebrafish; adult shoaling, shoals of four, 100 µg per gram fish i.p., 1 h before 15 min test, mean ± SEM, n = 7 shoals, vehicle 5.9 ± 0.3): 6.7 ± 0.2 cm
Social behaviour: Furthest neighbour distance (adult zebrafish; adult shoaling, shoals of four, 100 µg per gram fish i.p., 1 h before 15 min test, mean ± SEM, n = 7 shoals, vehicle 8.7 ± 0.5): 9.8 ± 0.2 cm
Locomotion: Velocity (adult zebrafish; adult shoaling, shoals of four, 100 µg per gram fish i.p., 1 h before 15 min test, mean ± SEM, vehicle 3.6 ± 0.2, p = 0.30): 3.2 ± 0.3 cm/s
Locomotion: Distance (adult zebrafish; adult shoaling, shoals of four, 100 µg per gram fish i.p., 1 h before 15 min test, mean ± SEM, vehicle 207 ± 15, p = 0.37): 186 ± 17 cm/min
Shoaling, in words (adult zebrafish; adult zebrafish): potentially also shoaling behaviour; also recorded: tentative and small effect
Activity parameters vs vehicle, shoaling test (adult zebrafish; average distance p = 0.37, average velocity p = 0.30): no significant differences
Inter-fish distance (IFD) vs vehicle, outlier excluded (adult zebrafish; t(10) = 2.276, p = 0.046): significantly more spread out
Nearest neighbour distance (NND) vs vehicle, outlier excluded (adult zebrafish; t(10) = 2.324, p = 0.042): significantly more spread out
Inhibition of the OT receptor in mammals (OT receptor): specifically inhibit the mammalian OT receptor
Social preference in larvae, in words (larval zebrafish): decreased social preference
Increase in SPI from acclimation to social cue (larval zebrafish; t(76) = 0.177, p = 0.86, vehicle larvae significantly increased, p = 0.039): not present
SPI during the social cue period vs vehicle (larval zebrafish; t(162) = 1,98, p = 0.049): significantly lower SPI
Social Preference Index (AC) (larval zebrafish; 3-week-old larvae, acclimation phase, mean ± SEM, n = 77, vehicle 0.06 ± 0.04): 0.00 ± 0.05
Locomotion (AC): Velocity (larval zebrafish; 3-week-old larvae, acclimation phase, mean ± SEM, n = 77, vehicle 0.28 ± 0.01): 0.30 ± 0.02 cm/s
Locomotion (AC): Distance (larval zebrafish; 3-week-old larvae, acclimation phase, mean ± SEM, n = 77, vehicle 249 ± 12): 265 ± 14 cm/min
Social Preference Index (SC) (larval zebrafish; 3-week-old larvae, social cue phase, mean ± SEM, n = 77, vehicle 0.18 ± 0.05): 0.01 ± 0.06
